Patent US20250270202A1, “SUBSTITUTED 4-AMINOISOINDOLINE COMPOUND, PREPARATION METHOD THEREFOR, PHARMACEUTICAL COMPOSITION THEREOF, AND USE THEREOF” (SHANGHAI INSTITUTE OF MATERIA MEDICA, CHINESE ACADEMY OF …, priority 2022, published 2025)
Read-outs that look alike come from different tables or passages of the source.

Columns and labels:
[1] = system: MV-4-11 cells; experiment: Inhibition of MV-4-11 cell proliferation (MTS, 7 days); assay type: cell-based
In short: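 Measured at 2,000 cells per well in IMDM with 10% FBS, five-fold compound dilutions, 0.2% DMSO final, 7 days at 37° C, 5% CO2. MTS added for 3-4 hours; signal as OD490-OD690. IC50 from three repeated experiments, each in triplicate.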

[2] = system: MM.1S cells; experiment: Effect of the compound on MM.1S cell proliferation (MTS, 7 days); assay type: cell-based
In short: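 MM.1S cells (20,000/well in RPMI 1640 with 10% FBS) were exposed to a 5-step compound dilution series (0.2% DMSO final) for 7 days at 37 °C, 5% CO2. MTS readout used OD490 minus OD690 after 3–4 h, and IC50 was fitted from three independent repeats.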

[3] = system: Mino cells; experiment: Inhibition of cell proliferation of Mino cells (MTS, 3 days); assay type: cell-based
In short: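 Mino cells in RPMI-1640 with 15% FBS were seeded at 8000 cells/well and treated with 5-fold compound dilutions (final DMSO 0.2%) for 3 days at 37° C. Viability was measured by MTS as OD490−OD690 after 3-4 h. IC50 was fitted from inhibition relative to DMSO and blank, in three repeat experiments.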

[4] = Mouse pharmacokinetic experiment, oral gavage; assay type: in vivo; conditions: ICR mice, female, oral gavage 20 mg/kg, plasma
Experimental: Mouse Pharmacokinetic Experimental Scheme ICR mice, female, 18-22 g, randomly divided into groups with 4 mice per group. The test compounds were administered by oral gavage at a dose volume of 10 mL/kg. The oral solution was prepared using DMSO/PEG-400/water (5:30:65, v/v/v). Mice were fasted for 12 hours prior to the experiment with free access to water. After drug administration, they were allowed to eat uniformly at 2 hours post-dose. The test compounds (20 mg/kg) were orally administered to 4 mice. Blood samples (50 μL) were collected from the orbital vein at the following time points: 5 min, 15 min, 30 min, 1 h, 2 h, 4 h, 6 h, and 24 h. The blood was centrifuged at 12,000 rpm for 2 minutes to separate plasma, which was then stored at −20° C. for blood concentration measurement.

[5] = Homo sapiens, MV4-11, 168 h, 7 days, MTS, Table 3, read-out: MV-4-11 Cells Inhibition Activity IC50
[6] = Homo sapiens, MM1.S, 168 h, 7 days, MTS, Table 1, read-out: MM.1S Cells Inhibition Activity IC50
[7] = Homo sapiens, MINO, 72 h, 3 days, MTS, Table 2, read-out: Mino Cells Inhibition Activity IC50
[8] = Homo sapiens, MV4-11, positive compounds, read-out: IC50 in MV-4-11 acute leukemia cells

[2H]c1c([2H])c([2H])c(-c2ncc(CNc3cccc4c3C(=O)N(C3CCC(=O)NC3=O)C4=O)o2)c([2H])c1[2H] (stereo not shown) [Example 45]
IC50 [1, 5]: < 1 µM | IC50 [2, 6]: 15 to 30 nM | IC50 [3, 7]: < 60 nM | AUC(0-t) [4]: > 10000 ng·h/mL | Cmax [4]: > 2000 ng/mL

O=C1CCC(N2C(=O)c3cccc(NCc4cnc(-c5ccc(C(F)(F)F)cc5)s4)c3C2=O)C(=O)N1 (stereo not shown) [Example 37]
IC50 [1, 5]: < 1 µM | IC50 [2, 6]: < 15 nM | IC50 [3, 7]: < 60 nM | AUC(0-t) [4]: > 10000 ng·h/mL | Cmax [4]: > 2000 ng/mL

O=C1CCC(N2C(=O)c3cccc(NCc4cnc(-c5ccc(OC6CC6)cc5)o4)c3C2=O)C(=O)N1 (stereo not shown) [Example 51, 4-(((2-(4-Cyclopropoxyphenyl)oxazol-5-yl)methyl)amino)-2-(2,6-Dioxopiperidin-3-yl)isoindolin-1,3-dione]
IC50 [1, 5]: < 1 µM | IC50 [2, 6]: < 15 nM | IC50 [3, 7]: < 60 nM | AUC(0-t) [4]: > 10000 ng·h/mL | Cmax [4]: > 2000 ng/mL

O=C1CCC(N2C(=O)c3cccc(NCc4cnc(-c5cccc(F)c5)s4)c3C2=O)C(=O)N1 (stereo not shown) [Example 28]
IC50 [1, 5]: 1 to 20 µM | IC50 [2, 6]: 30 to 150 nM | IC50 [3, 7]: > 120 nM

O=C1CCC(N2C(=O)c3cccc(NCc4cnc(-c5ccc(OC6CC6)cc5)s4)c3C2=O)C(=O)N1 (stereo not shown) [Example 103, 4-(((2-(4-Cyclopropoxyphenyl)thiazol-5-yl)methyl)amino)-2-(2,6-Dioxopiperidine-3-yl)isoindoline-1,3-dione]
IC50 [1, 5]: 1 to 20 µM | IC50 [2, 6]: < 15 nM | IC50 [3, 7]: > 120 nM

N#Cc1ccc(CN2CCC(c3ncc(CNc4cccc5c4C(=O)N(C4CCC(=O)NC4=O)C5=O)o3)CC2)c(F)c1 (stereo not shown) [Example 13]
IC50 [1, 5]: 1 to 20 µM | IC50 [2, 6]: 30 to 150 nM | IC50 [3, 7]: > 120 nM

CN1CCN(Cc2ncc(CNc3cccc4c3C(=O)N(C3CCC(=O)NC3=O)C4=O)o2)CC1 (stereo not shown) [Example 91]
IC50 [1, 5]: 1 to 20 µM | IC50 [2, 6]: > 150 nM | IC50 [3, 7]: > 120 nM

O=C1CCC(N2C(=O)c3cccc(NCc4cnc(C5CCN(C(=O)C6(c7ccc(F)cc7)CCC6)CC5)o4)c3C2=O)C(=O)N1 (stereo not shown) [Example 2]
IC50 [1, 5]: < 1 µM | IC50 [2, 6]: < 15 nM | IC50 [3, 7]: < 60 nM

O=C1CCC(N2C(=O)c3cccc(NCc4cnc(-c5cccc(-c6ccccc6)c5)o4)c3C2=O)C(=O)N1 (stereo not shown) [Example 18]
IC50 [1, 5]: < 1 µM | IC50 [2, 6]: < 15 nM | IC50 [3, 7]: < 60 nM

O=C1CCC(N2C(=O)c3cccc(NCc4nnc(-c5ccccc5)s4)c3C2=O)C(=O)N1 (stereo not shown) [Example 99, 2-(2,6-Dioxopiperidine-3-yl)-4-(((5-Phenyl-1,3,4-thiadiazol-2-yl)methyl)amino)isoindoline-1,3-dione]
IC50 [1, 5]: 1 to 20 µM | IC50 [2, 6]: 30 to 150 nM | IC50 [3, 7]: > 120 nM

O=C1CCC(N2C(=O)c3cccc(NCc4cnc(-c5ccccc5)o4)c3C2=O)C(=O)N1 (stereo not shown) [Example 22]
IC50 [1, 5]: < 1 µM | IC50 [2, 6]: < 15 nM | IC50 [3, 7]: < 60 nM | AUC(0-t) [4]: > 10000 ng·h/mL | Cmax [4]: > 2000 ng/mL

CC1(C(=O)N2CCC(c3ncc(CNc4cccc5c4C(=O)N(C4CCC(=O)NC4=O)C5=O)o3)CC2)CCC1 (stereo not shown) [Example 1]
IC50 [1, 5]: 1 to 20 µM | IC50 [2, 6]: < 15 nM | IC50 [3, 7]: < 60 nM

O=C1CCC(N2C(=O)c3cccc(NCc4cnc(-c5ccccc5Cl)o4)c3C2=O)C(=O)N1 (stereo not shown) [Example 92, 4-(((2-(2-Chlorophenyl)oxazol-5-yl)methyl)amino)-2-(2,6-Dioxopiperidine-3-yl)isoindoline-1,3-dione]
IC50 ([1]; 7 days, MTS, Table 3, read-out: MV-4-11 Cells Inhibition Activity IC50): < 1 µM | IC50 ([2]; 7 days, MTS, Table 1, read-out: MM.1S Cells Inhibition Activity IC50): < 15 nM | IC50 ([3]; 3 days, MTS, Table 2, read-out: Mino Cells Inhibition Activity IC50): > 120 nM

O=C1CCC(N2C(=O)c3cccc(NCc4cnc(CN5CCOCC5)o4)c3C2=O)C(=O)N1 (stereo not shown) [Example 82]
IC50 [1, 5]: < 1 µM | IC50 [2, 6]: > 150 nM | IC50 [3, 7]: > 120 nM

C=Cc1ccc(-c2ncc(CNc3cccc4c3C(=O)N(C3CCC(=O)NC3=O)C4=O)s2)cc1 (stereo not shown) [Example 31]
IC50 [1, 5]: < 1 µM | IC50 [2, 6]: < 15 nM | IC50 [3, 7]: < 60 nM

Nc1cccc2c1C(=O)N(C1CCC(=O)NC1=O)C2=O (stereo not shown) [Pomalidomide, reference compound]
IC50 [1, 5]: > 20 µM | IC50 [1, 8]: > 20 µM | IC50 [2, 6]: 30 to 150 nM | IC50 [3, 7]: > 120 nM

O=C1CCC(N2C(=O)c3cccc(NCc4ncc(-c5ccc(F)cc5)s4)c3C2=O)C(=O)N1 (stereo not shown) [Example 34]
IC50 [1, 5]: < 1 µM | IC50 [2, 6]: 30 to 150 nM | IC50 [3, 7]: > 120 nM

O=C1CCC(N2C(=O)c3cccc(NCc4cnc(-c5cccc(OC6COC6)c5)o4)c3C2=O)C(=O)N1 (stereo not shown) [Example 100]
IC50 [1, 5]: 1 to 20 µM | IC50 [2, 6]: < 15 nM | IC50 [3, 7]: > 120 nM

Cc1ccc(-c2cnc(CNc3cccc4c3C(=O)N(C3CCC(=O)NC3=O)C4=O)o2)cc1 (stereo not shown) [Example 24]
IC50 [1, 5]: < 1 µM | IC50 [2, 6]: 15 to 30 nM | IC50 [3, 7]: > 120 nM

O=C1CCC(N2C(=O)c3cccc(NCc4cnc(CN5CCC(N6CCOCC6)CC5)o4)c3C2=O)C(=O)N1 (stereo not shown) [Example 87]
IC50 [1, 5]: > 20 µM | IC50 [2, 6]: 30 to 150 nM | IC50 [3, 7]: > 120 nM

O=CN(Cc1cnc(-c2ccc(Cl)cc2)o1)c1cccc2c1C(=O)N(C1CCC(=O)NC1=O)C2=O (stereo not shown) [Example Ctrl-2, N-((2-(4-chlorophenyl)oxazol-5-yl)methyl)-N-(2-(2,6-dioxopiperidin-3-yl)-1,3-dioxoisoindolin-4-yl) formamide, reference compound]
IC50 ([1]; Homo sapiens, MV4-11, Table 4, values in μM, read-out: Inhibitory Activity of Compounds on Cell Proliferation MV-4-11 IC50): 1 to 20 µM | IC50 ([2]; Homo sapiens, MM1.S, Table 4, read-out: Inhibitory Activity of Compounds on Cell Proliferation MM.1S IC50): > 30 nM | IC50 ([3]; Homo sapiens, MINO, Table 4, read-out: Inhibitory Activity of Compounds on Cell Proliferation Mino IC50): > 120 nM

Nc1cccc2c1CN(C1CCC(=O)NC1=O)C2=O (stereo not shown) [Lenalidomide, reference compound]
IC50 [1, 5]: > 20 µM | IC50 [1, 8]: > 20 µM | IC50 [2, 6]: 30 to 150 nM | IC50 [3, 7]: > 120 nM
